Experimental data taken from article PMC11413854, “Reversible Control of Native GluN2B-Containing NMDA Receptors with Visible Light” (ACS Chemical Neuroscience, 2024).
Read-outs that look alike come from different tables or passages of the source.

Assays:
[1] = tested on: GluN1/GluN2A/GluN2B triheteromers; test: TEVC on Xenopus oocytes, GluN1/GluN2A/GluN2B triheteromers; type: cell-based, rat GluN1, rat GluN2A, mouse GluN2B; settings: 1 µM trans-OptoNAM-3 (dark)
Text: NMDARs exist as multiple subtypes in the brain that are formed by the combination of two GluN1 and either two identical (diheteromers) or different (triheteromers) GluN2 (GluN2A-D) subunits.[1] We assessed the selectivity of trans-OptoNAM-3 (dark PSS) for the other NMDAR subtypes.
(§1) We used cDNA coding for rat GluN1–1a (named GluN1 herein) (GenBank: U08261.1), rat GluN2A (GenBank: D13211.1), mouse GluN2B (GenBank: D10651.2), rat GluA1 flop (GenBank: M36418.2), and rat Myc-GluA2(Q)-flip (GenBank: AF164344.1) cloned into pcDNA3-based expression plasmids. GluK2 (GenBank: Z11548.1) corresponds to the fully RNA-edited version.[80] The GluN2B-ΔNTD construct is from ref[45] and GluN2B–N615K is from ref[81]. Single mutants GluN2B-Q110G and GluN1-L135H were from ref[19]. The GluA2 cDNA contains a Myc tag ([…]) fused between the signal peptide and the N-terminus sequences, and the GluA2 subunit is […] for its Q/R/N site (GluA2(Q)) to allow permeation of homomeric GluA2 receptors.[2] cDNAs coding for rat GluN2C (GenBank: M91563.1) and GluN2D subunits (GenBank: L31611.1) were in prK5 plasmids.
Expression of recombinant NMDA receptors was obtained by oocyte nuclear coinjection of 37 nL of a mixture of cDNAs (at 30 ng/μL) coding for GluN1–1a and various GluN2 subunits (ratio 1:1). The protocol in ref[43] was followed for the expression of GluN1/GluN2A/GluN2B triheteromers. […]

[2] = molecular target: GluN1/GluN2B-ΔNTD receptors (Rattus norvegicus (GluN1); Mus musculus (GluN2B), UniProt P35439+Q01097); test: TEVC on Xenopus oocytes, GluN2B NTD-deleted receptors; type: cell-based; settings: for Relative current (IOpto/I0): GluN1/GluN2B-DeltaNTD
Sequence of GluN1/GluN2B-ΔNTD receptors (Q01097 395-1482, stated change not applied, other chains not shown): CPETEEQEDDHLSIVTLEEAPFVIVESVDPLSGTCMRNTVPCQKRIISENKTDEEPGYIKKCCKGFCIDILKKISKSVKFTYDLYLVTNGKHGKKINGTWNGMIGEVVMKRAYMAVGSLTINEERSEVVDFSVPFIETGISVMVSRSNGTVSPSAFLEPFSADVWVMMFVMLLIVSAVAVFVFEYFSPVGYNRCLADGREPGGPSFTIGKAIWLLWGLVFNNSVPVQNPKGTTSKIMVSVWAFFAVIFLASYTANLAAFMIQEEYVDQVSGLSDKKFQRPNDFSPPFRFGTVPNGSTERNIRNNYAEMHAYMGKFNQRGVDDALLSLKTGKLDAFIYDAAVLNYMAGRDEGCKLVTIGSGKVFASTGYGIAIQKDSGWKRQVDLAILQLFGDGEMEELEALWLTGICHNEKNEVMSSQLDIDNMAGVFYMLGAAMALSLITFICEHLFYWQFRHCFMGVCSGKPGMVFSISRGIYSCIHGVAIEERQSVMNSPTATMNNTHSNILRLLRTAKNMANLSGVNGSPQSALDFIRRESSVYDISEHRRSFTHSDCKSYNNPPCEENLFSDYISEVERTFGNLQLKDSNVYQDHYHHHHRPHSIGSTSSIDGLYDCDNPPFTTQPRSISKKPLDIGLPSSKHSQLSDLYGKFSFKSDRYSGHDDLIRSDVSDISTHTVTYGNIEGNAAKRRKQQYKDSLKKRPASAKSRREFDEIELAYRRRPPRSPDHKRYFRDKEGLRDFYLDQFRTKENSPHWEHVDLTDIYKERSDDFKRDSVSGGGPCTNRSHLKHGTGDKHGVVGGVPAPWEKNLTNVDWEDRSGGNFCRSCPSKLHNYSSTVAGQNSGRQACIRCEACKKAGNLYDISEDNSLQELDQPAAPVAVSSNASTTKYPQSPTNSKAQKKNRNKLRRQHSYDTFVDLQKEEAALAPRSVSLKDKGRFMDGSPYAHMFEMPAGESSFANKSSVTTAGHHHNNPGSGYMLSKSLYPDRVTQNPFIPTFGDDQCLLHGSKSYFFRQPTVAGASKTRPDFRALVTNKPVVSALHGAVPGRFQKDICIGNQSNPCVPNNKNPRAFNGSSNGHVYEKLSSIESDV
Text: We finally investigated the location of the OptoNAM-3 binding-site on the receptor. […] The binding site for GluN2B-selective antagonists at the GluN1/GluN2B NTD dimer interface contains two partially overlapping pockets that accommodate GluN2B-selective NAMs of distinct chemical scaffolds:[19] either scaffolds related to ifenprodil or scaffolds related to another GluN2B-selective NAM called EVT-101.[47]
as §1
Expression of recombinant NMDA receptors was obtained by oocyte nuclear coinjection of 37 nL of a mixture of cDNAs (at 30 ng/μL) coding for GluN1–1a and various GluN2 subunits (ratio 1:1). The protocol in ref[43] was followed for the expression of GluN1/GluN2A/GluN2B triheteromers. The oocytes were transferred in 96-well plates filled with Barth solution (in mM: 88 NaCl, 1 KCl, 0.33 Ca(NO3)2, 0.41 CaCl2, 0.82 MgSO4, 2.4 NaHCO3, and 7.5 HEPES, pH adjusted to 7.3 with NaOH), supplemented with gentamicin ([…]) and 50 μM APV, a selective NMDA receptor antagonist. Plates were then stored at 18 °C for 24 h for GluN1/GluN2A expression and for 48––72 h for the expression of GluN1/Glu2B, GluN1/GluN2A/GluN2B, and mutants.
TEVC recordings were performed 1–3 days following injection. TEVC recordings were performed using an Oocyte Clamp amplifier OC-725 (Warner Instruments) and computer-controlled via a 1440A Digidata (Molecular Devices). Currents were sampled at 100 Hz and low-pass-filtered at 20 Hz using an 8-pole Bessel filter (900 Series, Frequency Devices Inc.). Data were collected with Clampfit 10.3. During the recording, the cells were continuously perfused with external recording Ringer solution at pH 7.3 (in mM: 100 NaCl, 0.3 BaCl2, 5 HEPES, and 2.5 KCl, pH adjustment to 7.3 by the addition of NaOH). The NMDA currents were induced by simultaneous application of L-glutamate and glycine (agonist solution) at saturating concentration (100 μM each), and DTPA (10 μM) to prevent receptor inhibition by ambient zinc (∼20 nM).[83] A control solution (100 μM glycine and 10 μM DTPA in Ringer pH 7.3) was used for washout of drug and test solutions. AMPA and kainate receptor currents were induced in the same conditions as NMDA currents (100 μM glutamate and glycine + 10 μM DTPA). Oocytes expressing GluK2 kainate receptors were treated with concanavalin A ([…], equivalent to 1.1 mg/mL) during 10 min before recording to decrease receptor desensitization. Unless notified, recordings were performed at a holding potential of −60 mV. All experiments were performed at room temperature.
OptoNAMs were diluted as stock solutions of 50 to 0.5 mM in DMSO. On the day of the experiment, they were diluted to the appropriate concentration in the recording solution and kept in the dark during the whole duration of the experiment to avoid photoconversion.

c1ccc(/N=N/c2ccc(CCNc3ccncc3)cc2)cc1 [OptoNAM-3, (E)-N-(4-(Phenyldiazenyl)phenethyl)pyridin-4-amine]
inhibition of GluN1/GluN2A/GluN2B triheteromers [1]: 11.404%
inhibition of GluN1/GluN2A/GluN2B triheteromers ([1]; listed as trans-OptoNAM-3): 11.4% ± 0.9%
inhibition of GluN1/GluN2B-DeltaNTD ([2]; 1 µM trans-OptoNAM-3 (dark), calculated from the dose-response curve): 2.150%
IC50 ([2]; 365 nm PSS, read-out: IC50 on GluN1/GluN2B-ΔNTD receptors pre-illuminated with 365 nm): 25 ± 6 µM
Relative current (IOpto/I0) ([2]; OptoNAM-3 365 nm PSS, [OptoNAM-3] 0.3 µM): 0.952
Relative current (IOpto/I0) ([2]; OptoNAM-3 365 nm PSS, [OptoNAM-3] 2 µM): 0.900
Relative current (IOpto/I0) ([2]; OptoNAM-3 365 nm PSS, [OptoNAM-3] 5 µM): 0.779
Relative current (IOpto/I0) ([2]; OptoNAM-3 365 nm PSS, [OptoNAM-3] 20 µM): 0.661
Relative current (IOpto/I0) ([2]; OptoNAM-3 365 nm PSS, [OptoNAM-3] 30 µM): 0.421
Relative current (IOpto/I0) ([2]; OptoNAM-3 365 nm PSS, [OptoNAM-3] 67 µM): 0.119
Relative current (IOpto/I0) ([2]; OptoNAM-3 dark PSS (trans), [OptoNAM-3] 0.3 µM): 0.969
Relative current (IOpto/I0) ([2]; OptoNAM-3 dark PSS (trans), [OptoNAM-3] 2 µM): 0.866
Relative current (IOpto/I0) ([2]; OptoNAM-3 dark PSS (trans), [OptoNAM-3] 5 µM): 0.809
Relative current (IOpto/I0) ([2]; OptoNAM-3 dark PSS (trans), [OptoNAM-3] 20 µM): 0.542
Relative current (IOpto/I0) ([2]; OptoNAM-3 dark PSS (trans), [OptoNAM-3] 30 µM): 0.365
Relative current (IOpto/I0) ([2]; OptoNAM-3 dark PSS (trans), [OptoNAM-3] 67 µM): 0.033
shift in IC50 between wt and GluN1/GluN2B-ΔNTD receptors ([2]; dark): 100 fold
IC50 ([2]; dark, read-out: IC50 on GluN1/GluN2B-ΔNTD receptors in the dark): 20 ± 4 µM
